*1 amine or outer side, *2 acyl side, *3 side chain or, on linkers, in order; H or OH if unused. Where a SMILES comes first, the peptide text is derived from it. [ ]: non-standard residue; d: D form. The star is where a group is joined. X1 = O=C(O)CC[C@H](NC(=O)N[C@@H](CCCCNC(=O)CCCCCCC(=O)*)C(=O)O)C(=O)O; Dolaproine = CO[C@@H]([C@@H]1CCCN1)[C@@H](C)C(=O)O; Dil = CC[C@H](C)[C@H](NC)[C@@H](CC(=O)O)OC; PABC = O=C(OCc1ccc(N[*:1])cc1)[*:2]; X2 = C[C@@H](N*)[C@@H](O)c1ccccc1; Cit = NC(=O)NCCC[C@H](N)C(=O)O; NMeV = CN[C@H](C(=O)O)C(C)C
Target: T1, cathepsin B (Homo sapiens, UniProt P07858)
T1 construct: gene CTSB; recombinant cathepsin B
Experiment: cleavage by recombinant cathepsin B followed by HPLC (MMAE release)
Format: biochemical

Question: With `CC[C@H](C)[C@@H]([C@@H](CC(=O)N1CCC[C@H]1[C@H](OC)[C@@H](C)C(=O)N[C@H](C)[C@@H](O)c1ccccc1)OC)N(C)C(=O)[C@@H](NC(=O)[C@H](C(C)C)N(C)C(=O)OCc1ccc(NC(=O)[C@H](CCCNC(N)=O)NC(=O)[C@@H](NC(=O)CCCCCCC(=O)NCCCC[C@H](NC(=O)N[C@@H](CCC(=O)O)C(=O)O)C(=O)O)C(C)C)cc1)C(C)C` [SBPD-1, (6S,9S,24S,28S)-1-amino-6-((4-((5S,8S,11S)-11-((S)-sec-butyl)-12-(2-((S)-2-((1R,2R)-3-(((1S,2R)-1-hydroxy-1-phenylpropan-2-yl)amino)-1-methoxy-2-methyl-3-oxopropyl)pyrrolidin-1-yl)-2-oxoethyl)-5,8-diisopropyl-4,10-dimethyl-3,6,9-trioxo-2,13-dioxa-4,7,10-triazatetradecyl)phenyl)carbamoyl)-9-isopropyl-1,8,11,18,26-pentaoxo-2,7,10,19,25,27-hexaazatriacontane-24,28,30-tricarboxylic acid] (X1-V[Cit][PABC][NMeV]V[Dil][Dolaproine]-X2) as the compound, how does the metabolised at 3 h read?
Answer: Its metabolised at 3 h is 80%.

— PMC8007718, “A prostate-specific membrane antigen (PSMA)-targeted prodrug with a favorable in vivo toxicity profile” (Scientific Reports, 2021)
